Measured values published in the NIST ThermoML archive (doi:10.1021/je101035p).
± gives the expanded uncertainty stated by the source.

Assays:
[1] = Liquid; for Normal boiling temperature: Distillation
[2] = refractive index (Na D-line) (dimensionless); conditions: 101.33 kPa, Liquid, Standard Abbe refractometry

| SMILES | Normal boiling temperature [1] [°C] | refractive index ([2]; 293.2 K) | mass density ([1]; 293.2 K, 101.33 kPa, Vibrating tube method) [kg/m3] | refractive index ([2]; 294 K) |
| --- | --- | --- | --- | --- |
| CCO [ethanol] | 78.29 ± 1.1 | 1.36115 ± 0.0007 |  |  |
| C=CC(C)(CCC=C(C)C)OC(C)=O (stereo not given) [linalool acetate] | 220.00 ± 1.2 |  | 895.06 ± 4.4 | 1.45445 ± 0.0012 |
